Consider 17 compounds from US9695154B2, “Heteroaryl inhibitors of sumo activating enzyme” (MILLENNIUM PHARMACEUTICALS, INC., priority 2013, dated 2017).

Where only a bound is given, the exact number is not on record here.

The assay concerns the target T1, recombinant human SAE enzyme (Homo sapiens, UniProt Q9UBT2).
T1 sequence (Q9UBT2 1-640): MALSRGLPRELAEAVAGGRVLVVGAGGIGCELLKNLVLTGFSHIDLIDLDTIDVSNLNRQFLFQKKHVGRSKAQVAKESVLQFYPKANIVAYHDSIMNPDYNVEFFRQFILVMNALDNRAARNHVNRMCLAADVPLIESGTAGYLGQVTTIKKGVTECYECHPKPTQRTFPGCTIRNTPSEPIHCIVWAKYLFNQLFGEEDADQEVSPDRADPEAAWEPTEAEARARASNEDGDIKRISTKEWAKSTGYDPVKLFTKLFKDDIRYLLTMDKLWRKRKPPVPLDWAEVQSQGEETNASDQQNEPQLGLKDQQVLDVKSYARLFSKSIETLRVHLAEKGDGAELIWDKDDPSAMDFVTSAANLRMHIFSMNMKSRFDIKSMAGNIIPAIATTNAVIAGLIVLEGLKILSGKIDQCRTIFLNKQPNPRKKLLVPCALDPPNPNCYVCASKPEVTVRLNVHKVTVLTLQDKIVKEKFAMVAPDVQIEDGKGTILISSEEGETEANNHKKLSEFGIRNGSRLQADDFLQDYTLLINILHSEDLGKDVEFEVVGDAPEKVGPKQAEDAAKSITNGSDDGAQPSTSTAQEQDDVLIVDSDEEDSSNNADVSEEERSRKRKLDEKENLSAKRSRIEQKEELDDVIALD
T1 sequence (Q9UBE0 1-346 partner): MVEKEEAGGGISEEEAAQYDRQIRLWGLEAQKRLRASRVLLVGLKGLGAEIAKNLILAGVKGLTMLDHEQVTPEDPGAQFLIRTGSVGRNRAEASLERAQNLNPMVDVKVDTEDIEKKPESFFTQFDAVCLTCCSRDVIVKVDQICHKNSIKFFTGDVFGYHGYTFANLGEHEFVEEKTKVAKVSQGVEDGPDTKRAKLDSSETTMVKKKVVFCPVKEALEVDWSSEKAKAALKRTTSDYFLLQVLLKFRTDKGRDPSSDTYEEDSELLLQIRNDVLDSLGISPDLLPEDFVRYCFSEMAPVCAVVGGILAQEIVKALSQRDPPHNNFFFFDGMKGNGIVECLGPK
Put plainly: SAE HTRF Enzyme Assay. The assay is classed as biochemical. As to conditions: for IC50: class symbols A-C; for inhibition at 0.111 µM: compound concentration 0.111 μM, read-out: Percent Inhibition. The procedure, abridged:
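HTRF signal from Eu-anti-Flag/APC-anti-GST pairs reports Sumo-Flag loaded onto Ubc9-GST by 0.11 nM SAE. Reaction: 0.5 μM ATP, 0.125 μM Sumo-Flag, 0.01 μM Ubc9-GST, 5 mM MgCl2, pH 7.5, 105 min, 24° C. Single-concentration % inhibition or IC50 reported.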

Turning to `NS(=O)(=O)OC[C@H]1C[C@@H](Nc2ncncc2C(=O)c2ccn(Cc3ccc(F)c(OC(F)(F)F)c3)c2)C[C@@H]1O` [Compound I-211, [(1R,2S,4R)-4-{[5-({1-[4-fluoro-3-(trifluoromethoxy)benzyl]-1H-pyrrol-3-yl}carbonyl)pyrimidin-4-yl]amino}-2-hydroxycyclopentyl]methyl sulfamate], the half-maximal inhibitory concentration (IC50) was less than 10 nM and the inhibition at 0.111 µM was 97%.

With `NS(=O)(=O)OC[C@H]1C[C@@H](Nc2ncncc2C(=O)c2ccn(Cc3ccc(F)c(F)c3)n2)C[C@@H]1O` [Compound I-212, {(1R,2S,4R)-4-[(5-{[1-(3,4-difluorobenzyl)-1H-pyrazol-3-yl]carbonyl}pyrimidin-4-yl)amino]-2-hydroxycyclopentyl}methyl sulfamate], the IC50 is less than 10 nM and the inhibition at 0.111 µM was 95%.

As for `NS(=O)(=O)OC[C@H]1C[C@@H](Nc2ncncc2C(=O)c2ccn(Cc3cc(F)cc(C(F)(F)F)c3)c2)C[C@@H]1O` [Compound I-213, [(1R,2S,4R)-4-{[5-({1-[3-fluoro-5-(trifluoromethyl)benzyl]-1H-pyrrol-3-yl}carbonyl)pyrimidin-4-yl]amino}-2-hydroxycyclopentyl]methyl sulfamate], the IC50 is less than 10 nM and the inhibition at 0.111 µM came to 97%.

With `NS(=O)(=O)OC[C@H]1C[C@@H](Nc2ncncc2C(=O)c2ccn(Cc3cn4ccccc4n3)n2)C[C@@H]1O` [Compound I-214, {(1R,2S,4R)-2-hydroxy-4-[(5-{[1-(imidazo[1,2-a]pyridin-2-ylmethyl)-1H-pyrazol-3-yl]carbonyl}pyrimidin-4-yl)amino]cyclopentyl}methyl sulfamate], the IC50 was less than 10 nM and the inhibition at 0.111 µM was found to be 98%.

`NS(=O)(=O)OC[C@H]1C[C@@H](Nc2ncncc2C(=O)c2ccn(Cc3cccc(Cl)c3)n2)C[C@@H]1O` [Compound I-215, {(1R,2S,4R)-4-[(5-{[1-(3-chlorobenzyl)-1H-pyrazol-3-yl]carbonyl}pyrimidin-4-yl)amino]-2-hydroxycyclopentyl}methyl sulfamate]: the concentration for half-maximal inhibition (IC50) is less than 10 nM and the inhibition at 0.111 µM is 99%.

Take `Cn1cccc(Cn2ccc(C(=O)c3cncnc3N[C@@H]3C[C@H](COS(N)(=O)=O)[C@@H](O)[C@@H]3F)c2)c1=O` [Compound I-216, [(1R,2R,3R,4R)-3-fluoro-2-hydroxy-4-{[5-({1-[(1-methyl-2-oxo-1,2-dihydropyridin-3-yl)methyl]-1H-pyrrol-3-yl}carbonyl)pyrimidin-4-yl]amino}cyclopentyl]methyl sulfamate]: the half-inhibitory concentration (IC50) is less than 10 nM and the inhibition at 0.111 µM came out at 97%.

For the compound `NS(=O)(=O)OC[C@H]1C[C@@H](Nc2ncncc2C(=O)c2ccn(Cc3ccccc3)c2)[C@H](O)[C@@H]1O` [Compound I-217, [(1R,2R,3S,4R)-4-({5-[(1-Benzyl-1H-pyrrol-3-yl)carbonyl]pyrimidin-4-yl}amino)-2,3-dihydroxycyclopentyl]methyl sulfamate], the half-inhibitory concentration (IC50) is less than 10 nM and the inhibition at 0.111 µM is 98%.

Turning to `NS(=O)(=O)OC[C@H]1C[C@@H](Nc2ncncc2C(=O)c2ccn(Cc3ccc(Cl)c(OC(F)(F)F)c3)n2)[C@@H](F)[C@@H]1O` [Compound I-218, [(1R,2R,3R,4R)-4-{[5-({1-[4-chloro-3-(trifluoromethoxy)benzyl]-1H-pyrazol-3-yl}carbonyl)pyrimidin-4-yl]amino}-3-fluoro-2-hydroxycyclopentyl]methyl sulfamate], the half-inhibitory concentration (IC50) was 10 to 100 nM and the inhibition at 0.111 µM was 89%.

As to `NS(=O)(=O)OC[C@H]1C[C@@H](Nc2ncncc2C(=O)c2ccn(Cc3cccc(F)c3F)n2)C[C@@H]1O` [Compound I-219, {(1R,2S,4R)-4-[(5-{[1-(2,3-difluorobenzyl)-1H-pyrazol-3-yl]carbonyl}pyrimidin-4-yl)amino]-2-hydroxycyclopentyl}methyl sulfamate], the IC50 is less than 10 nM and the inhibition at 0.111 µM came out at 99%.

Regarding `CC(C)n1ccc(C(=O)c2cncnc2N[C@@H]2C[C@H](COS(N)(=O)=O)[C@@H](O)[C@H]2O)n1` [Compound I-220, [(1R,2R,3S,4R)-2,3-dihydroxy-4-({5-[(1-isopropyl-1H-pyrazol-3-yl)carbonyl]pyrimidin-4-yl}amino)cyclopentyl]methyl sulfamate], the half-inhibitory concentration (IC50) fell in the range of 10 to 100 nM and the inhibition at 0.111 µM is 57%.

On to `NS(=O)(=O)OC[C@H]1C[C@@H](Nc2ncncc2C(=O)c2ccn(Cc3cccc(I)c3)n2)[C@H](O)[C@@H]1O` [Compound I-221, {(1R,2R,3S,4R)-2,3-dihydroxy-4-[(5-{[1-(3-iodobenzyl)-1H-pyrazol-3-yl]carbonyl}pyrimidin-4-yl)amino]cyclopentyl}methyl sulfamate], for which the IC50 was less than 10 nM and the inhibition at 0.111 µM stood at 100%.

Take `NS(=O)(=O)OC[C@H]1C[C@@H](Nc2ncncc2C(=O)c2ccn(CC3CCOCC3)c2)[C@@H](F)[C@@H]1O` [Compound I-222, {(1R,2R,3R,4R)-3-fluoro-2-hydroxy-4-[(5-{[1-(tetrahydro-2H-pyran-4-ylmethyl)-1H-pyrrol-3-yl]carbonyl}pyrimidin-4-yl)amino]cyclopentyl}methyl sulfamate]: the IC50 was in the range of 10 to 100 nM and the inhibition at 0.111 µM turned out to be 63%.

In the case of `NS(=O)(=O)OC[C@H]1C[C@@H](Nc2ccncc2C(=O)c2ccn(Cc3cccc(Br)c3)n2)C[C@@H]1O` [Compound I-223, {(1R,2S,4R)-4-[(3-{[1-(3-bromobenzyl)-1H-pyrazol-3-yl]carbonyl}pyridin-4-yl)amino]-2-hydroxycyclopentyl}methyl sulfamate], the 50% inhibitory concentration (IC50) is less than 10 nM and the inhibition at 0.111 µM amounted to 99%.

As to `NS(=O)(=O)OC[C@H]1C[C@@H](Nc2ncncc2C(=O)c2ccn(Cc3cccc(OC(F)F)c3)c2)[C@@H](F)[C@@H]1O` [Compound I-224, [(1R,2R,3R,4R)-4-{[5-({1-[3-(difluoromethoxy)benzyl]-1H-pyrrol-3-yl}carbonyl)pyrimidin-4-yl]amino}-3-fluoro-2-hydroxycyclopentyl]methyl sulfamate], the IC50 is less than 10 nM and the inhibition at 0.111 µM is 99%.

Consider `NS(=O)(=O)OC[C@H]1C[C@@H](Nc2ncncc2C(=O)c2ccn(Cc3c(F)ccc(F)c3F)n2)[C@H](O)[C@@H]1O` [Compound I-225, {(1R,2R,3S,4R)-2,3-dihydroxy-4-[(5-{[1-(2,3,6-trifluorobenzyl)-1H-pyrazol-3-yl]carbonyl}pyrimidin-4-yl)amino]cyclopentyl}methyl sulfamate], for which the IC50 is less than 10 nM and the inhibition at 0.111 µM was greater than 99%.

Take `NS(=O)(=O)OC[C@H]1C[C@@H](Nc2ncncc2C(=O)c2ccn(Cc3ccccc3C(F)(F)F)n2)C[C@@H]1O` [Compound I-226, [(1R,2S,4R)-2-hydroxy-4-{[5-({1-[2-(trifluoromethyl)benzyl]-1H-pyrazol-3-yl}carbonyl)pyrimidin-4-yl]amino}cyclopentyl]methyl sulfamate]: the IC50 lay within 10 to 100 nM and the inhibition at 0.111 µM came out at 85%.

Consider `NS(=O)(=O)OC[C@H]1C[C@@H](Nc2ncncc2C(=O)c2ccn(Cc3ccccc3)n2)[C@H](F)[C@@H]1O` [Compound I-227, [(1R,2R,3S,4R)-4-({5-[(1-benzyl-1H-pyrazol-3-yl)carbonyl]pyrimidin-4-yl}amino)-3-fluoro-2-hydroxycyclopentyl]methyl sulfamate], for which the half-inhibitory concentration (IC50) was less than 10 nM and the inhibition at 0.111 µM is 97%.

A word on the IC50: it is the concentration that inhibits the measured activity by half. For orientation: inhibition means the drop in the measured response relative to a control, in per cent.
